Data on 62 compounds can be found in the Kinase Knowledgebase extract (Sharma et al. 2016).

pIC50: −log10 of the molar value.

PIK3CA (human), sequence (P42336 whole entry, looked up): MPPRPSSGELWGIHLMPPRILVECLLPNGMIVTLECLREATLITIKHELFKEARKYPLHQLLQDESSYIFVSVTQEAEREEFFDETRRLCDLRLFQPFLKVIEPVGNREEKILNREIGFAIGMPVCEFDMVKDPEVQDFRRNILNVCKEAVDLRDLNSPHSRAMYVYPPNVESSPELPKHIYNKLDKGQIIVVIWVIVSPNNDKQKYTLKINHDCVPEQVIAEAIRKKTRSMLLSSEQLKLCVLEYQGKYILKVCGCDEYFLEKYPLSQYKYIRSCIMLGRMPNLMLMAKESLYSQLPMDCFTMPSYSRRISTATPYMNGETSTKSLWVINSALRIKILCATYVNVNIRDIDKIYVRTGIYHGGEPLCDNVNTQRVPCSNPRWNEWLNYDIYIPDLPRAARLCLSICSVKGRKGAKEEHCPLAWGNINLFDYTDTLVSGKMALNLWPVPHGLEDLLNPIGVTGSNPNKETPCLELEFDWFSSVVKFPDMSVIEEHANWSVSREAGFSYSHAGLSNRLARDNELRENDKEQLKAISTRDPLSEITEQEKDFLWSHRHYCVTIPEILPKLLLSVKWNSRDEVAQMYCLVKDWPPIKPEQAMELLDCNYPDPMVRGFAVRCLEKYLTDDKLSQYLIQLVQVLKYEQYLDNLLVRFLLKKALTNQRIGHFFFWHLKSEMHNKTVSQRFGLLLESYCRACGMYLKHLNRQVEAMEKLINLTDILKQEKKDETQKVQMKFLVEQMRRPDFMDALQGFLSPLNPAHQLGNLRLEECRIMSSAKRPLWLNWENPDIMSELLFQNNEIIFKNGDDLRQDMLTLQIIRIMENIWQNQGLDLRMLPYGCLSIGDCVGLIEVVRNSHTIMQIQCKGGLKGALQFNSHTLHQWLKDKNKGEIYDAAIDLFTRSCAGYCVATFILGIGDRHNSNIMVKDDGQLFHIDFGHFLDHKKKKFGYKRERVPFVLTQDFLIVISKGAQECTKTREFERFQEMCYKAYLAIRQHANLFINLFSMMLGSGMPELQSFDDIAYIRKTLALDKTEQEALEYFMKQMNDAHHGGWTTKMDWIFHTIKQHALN

The assay concerns the target PIK3CA (human) (UniProt P42336). Briefly: Assessment of PI3KCA Kinase Activity.
For the compound `CC(=O)Nc1cc(-c2nc(-c3ccc(Cl)c(Cl)c3)c(-c3ncc[nH]3)s2)ccn1`, the pIC50 is above 7.00.
The figure for `Cc1nn2ccc(OCCN3CCNC(=O)C3)cc2c1-c1nc(-c2ccccc2)c(-c2nc[nH]n2)s1` is above 7.00.
The value for `CC(=O)Nc1cc(-c2nc(-c3ccc(Cl)cc3Cl)c(-c3ncc[nH]3)s2)c(C)cn1` was 6.00 to 7.00; that for `CCOc1nc(-c2ccnc(NC(=O)c3cccc(OC)c3)c2)sc1-c1nnc[nH]1` was 6.00 to 7.00.
The value for `Cc1nc2ccc(-c3cnn(C)c3)cn2c1-c1nc(-c2ccccc2)c(-c2nc[nH]n2)s1` was above 7.00; that for `Clc1ccc(-c2nc(-c3ccnc4[nH]ccc34)sc2-c2ncc[nH]2)c(Cl)c1` was above 7.00.
Regarding `N#Cc1c(-c2ccnc(NC(=O)C3CCC3)c2)sc(-c2nnc[nH]2)c1-c1ccc(Cl)cc1Cl`, the pIC50 is 6.00 to 7.00.
The figure for `Cc1nn2ccccc2c1-c1nc(-c2ccoc2)c(-c2nnc[nH]2)s1` is above 7.00; for `CC(=O)Nc1cc(-c2nc(-c3cccc4cnccc34)c(-c3ncc[nH]3)s2)ccn1` it is 6.00 to 7.00; for `N#Cc1c(-c2ccnc(N)n2)sc(-c2nnc[nH]2)c1-c1ccc(Cl)cc1Cl` it is above 7.00.
The value for `Clc1ccc(-c2cc(-c3ccnc4[nH]ccc34)sc2-c2ncc[nH]2)c(Cl)c1` was above 7.00; that for `CCOc1nc(-c2ccnc(NC(=O)c3cccc(F)c3)c2)sc1-c1nnc[nH]1` was above 7.00.
`Cc1nn2ccccc2c1-c1nc(-c2ccc(NC(=O)OCc3ccccc3)cc2)c(-c2nc[nH]n2)s1` gave a pIC50 of 6.00 to 7.00.
The value for `CC(=O)Nc1cc(-c2nc(-c3ccsc3)c(-c3ncc[nH]3)s2)ccn1` was 6.00 to 7.00; that for `CCOc1nc(-c2ccnc(NC(=O)C3CCCC3)c2)sc1-c1nnc[nH]1` was 6.00 to 7.00.
The value for `Cc1nn2ccccc2c1-c1nc(-c2ccc[nH]2)c(-c2nc[nH]n2)s1` was 6.00 to 7.00; that for `N#Cc1c(-c2ccnc(N)c2)sc(-c2ncc[nH]2)c1-c1ccc(Cl)cc1Cl` was above 7.00; that for `CC(=O)Nc1cc(-c2sc(-c3ncc[nH]3)c(-c3ccc(Cl)cc3Cl)c2C#N)ccn1` was above 7.00.
On to `Cc1nn2ccccc2c1-c1nc(-c2cnc3[nH]ccc3c2)c(-c2nc[nH]n2)s1`, for which the pIC50 was above 7.00.
The value for `N#Cc1c(-c2ccnc(NC(=O)c3ccncc3)c2)sc(-c2nnc[nH]2)c1-c1ccc(Cl)cc1Cl` was 6.00 to 7.00; that for `Cc1cc(-c2cc(-c3ccc(Cl)cc3Cl)c(-c3ncc[nH]3)s2)ccn1` was above 7.00; that for `CC(=O)Nc1cc(-c2nc(-c3ccc(N(C)C)nc3)c(-c3ncc[nH]3)s2)ccn1` was 6.00 to 7.00.
The figure for `CCOc1nc(-c2c(C)nn3ccccc23)sc1-c1nnc[nH]1` is above 7.00; for `COc1cccc(F)c1-c1nc(-c2c(C)nn3ccccc23)sc1-c1nc[nH]n1` it is above 7.00.
Compound `O=C1CCc2c(-c3cc(-c4ccc(Cl)cc4Cl)c(-c4ncc[nH]4)s3)ccnc2N1` gave a pIC50 above 7.00.
Compound `COc1ccc(Cl)c(-c2nc(-c3ccnc(NC(C)=O)c3)sc2-c2ncc[nH]2)c1` showed a pIC50 above 7.00.
As for `Cc1nn2ccccc2c1-c1nc(-c2ccccc2)c(-c2nnc[nH]2)s1`, the pIC50 is above 7.00.
The value for `Cc1nn2ccsc2c1-c1nc(-c2ccccc2)c(-c2nccs2)s1` was above 7.00.
The figure for `CN(C)CC(=O)Nc1cc(-c2sc(-c3nnc[nH]3)c(-c3ccc(Cl)cc3Cl)c2C#N)ccn1` is 6.00 to 7.00; for `CC(=O)Nc1cc(-c2sc(-c3nccn3Cc3ccccn3)c(-c3ccc(Cl)cc3Cl)c2C#N)ccn1` it is 6.00 to 7.00.
On to `Cc1nn2ccccc2c1-c1nc(-c2ccccc2OCc2ccccc2)c(-c2nc[nH]n2)s1`, for which the pIC50 is 6.00 to 7.00.
The value for `N#Cc1c(-c2ccnc(Nc3nccs3)c2)sc(-c2ncc[nH]2)c1-c1ccc(Cl)cc1Cl` was above 7.00; that for `CNC(=O)Nc1cc(-c2sc(-c3nnc[nH]3)c(-c3ccc(Cl)cc3Cl)c2C#N)ccn1` was above 7.00.
For `N#Cc1c(-c2ccnc(NC(N)=O)c2)sc(-c2nnc[nH]2)c1-c1ccc(Cl)cc1Cl`, the pIC50 is above 7.00.
The figure for `N#Cc1c(-c2ccnc(NC(=O)c3cnccn3)c2)sc(-c2nnc[nH]2)c1-c1ccc(Cl)cc1Cl` is 6.00 to 7.00; for `Cc1nn2ccccc2c1-c1nc(-c2cccc(F)c2)c(-c2nnc[nH]2)s1` it is above 7.00.
The figure for `CC(=O)Nc1cc(-c2nc(-c3ccccc3Cl)c(-c3ncc[nH]3)s2)ccn1` is above 7.00.
The value for `COc1ncccc1-c1nc(-c2ccnc(NC(C)=O)c2)sc1-c1nnc[nH]1` was 6.00 to 7.00; that for `CCCC(=O)Nc1cc(-c2nc(OCC)c(-c3nnc[nH]3)s2)ccn1` was 6.00 to 7.00; that for `N=C(N)Nc1cc(-c2cc(-c3ccc(Cl)cc3Cl)c(-c3ncc[nH]3)s2)ccn1` was 6.00 to 7.00.
Take `CCOC(=O)Nc1cc(-c2nc(OCC)c(-c3nc[nH]n3)s2)ccn1`: the pIC50 was above 7.00.
The figure for `Cc1nn2ccccc2c1-c1nc(-c2c(F)cccc2Cl)c(-c2nc[nH]n2)s1` is above 7.00; for `CC(=O)Nc1cc(-c2nc(-c3ccc(C(C)(C)C#N)cc3)c(-c3ncc[nH]3)s2)ccn1` it is 6.00 to 7.00; for `Cc1nn2ccccc2c1-c1nc(-c2ccc(CN)cc2)c(-c2nc[nH]n2)s1` it is 6.00 to 7.00.
For the compound `Cc1nc2sccn2c1-c1nc(-c2ccccc2)c(-c2nnc[nH]2)s1`, the pIC50 was above 7.00.
The figure for `CCOc1nc(-c2ccnc(NC(=O)CCc3ccccc3)c2)sc1-c1nnc[nH]1` is above 7.00; for `N#Cc1c(-c2ccnc(F)c2)sc(-c2nnc[nH]2)c1-c1ccc(Cl)cc1Cl` it is 6.00 to 7.00; for `COc1ccc(-c2ccc3nc(C)c(-c4nc(-c5ccccc5)c(-c5nc[nH]n5)s4)n3c2)cc1OC` it is above 7.00.
In turn, `CCOc1nc(-c2ccnc(NC(=O)Cc3ccccc3)c2)sc1-c1nnc[nH]1` showed a pIC50 of 6.00 to 7.00.
The value for `COc1ccc(-c2nc(-c3ccnc(NC(C)=O)c3)sc2-c2ncc[nH]2)cc1` was 6.00 to 7.00.
With `CC(=O)Nc1cc(-c2nc(-c3c(C)cccc3C)c(-c3nnc[nH]3)s2)ccn1`, the pIC50 is 6.00 to 7.00.
The value for `Cc1nnc(-c2sc(-c3c(C)nn4ccsc34)nc2-c2ccccc2)[nH]1` was above 7.00.
The value for `CC(=O)Nc1cc(-c2nc(-c3ccc4c(c3)OCO4)c(-c3ncc[nH]3)s2)ccn1` was above 7.00; that for `Clc1ccc(-c2cc(-c3ncnc4[nH]cnc34)sc2-c2ncc[nH]2)c(Cl)c1` was 6.00 to 7.00; that for `Clc1ccc(-c2cc(-c3ccnc4ccccc34)sc2-c2ncc[nH]2)c(Cl)c1` was 6.00 to 7.00.
The value for `Cc1nn2ccc(OCc3ccccc3)cc2c1-c1nc(-c2ccccc2)c(-c2nnc[nH]2)s1` was above 7.00.
On to `N#Cc1c(-c2ccnc(NC(=O)C3CC3)c2)sc(-c2nnc[nH]2)c1-c1ccc(Cl)cc1Cl`, for which the pIC50 is above 7.00.
The figure for `COc1ccc(F)c(F)c1-c1nc(-c2c(C)nn3ccccc23)sc1-c1nc[nH]n1` is 6.00 to 7.00.
The value for `CC(=O)Nc1cc(-c2nc(-c3ccc4nonc4c3)c(-c3ncc[nH]3)s2)ccn1` was 6.00 to 7.00; that for `c1ccc(-c2nc(-c3cnn4ccccc34)sc2-c2nnc[nH]2)cc1` was 6.00 to 7.00; that for `CC(=O)Nc1cc(-c2nc(-c3ccc(Cl)cc3Cl)c(-c3nc(C#N)c[nH]3)s2)ccn1` was 6.00 to 7.00.
The value for `COC(=O)Nc1cc(-c2sc(-c3nnc[nH]3)c(-c3ccc(Cl)cc3Cl)c2C#N)ccn1` was above 7.00.

In general, pIC50 refers to −log10 of the IC50, conventionally taken in molar units. A high value points to a small IC50.
